Laboratory results: publication PMC11951083, “Highly Specific Miniaturized Fluorescent Monoacylglycerol Lipase Probes Enable Translational Research” (Journal of the American Chemical Society, 2025)

Molecular target: T1, MAGL (Homo sapiens, UniProt Q99685)
T1 sequence (Q99685 1-303): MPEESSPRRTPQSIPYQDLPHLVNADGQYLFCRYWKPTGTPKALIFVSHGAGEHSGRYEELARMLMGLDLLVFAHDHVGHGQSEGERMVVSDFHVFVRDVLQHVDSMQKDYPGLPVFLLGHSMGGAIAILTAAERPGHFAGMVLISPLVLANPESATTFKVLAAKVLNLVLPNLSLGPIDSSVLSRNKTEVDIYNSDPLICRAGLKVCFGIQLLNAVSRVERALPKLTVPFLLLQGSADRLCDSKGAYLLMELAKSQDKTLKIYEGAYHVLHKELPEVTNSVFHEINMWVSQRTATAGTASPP
Test: Fluorescence polarization titration of probe 5 with purified hMAGL
Format: binding
Conditions: FP titration, probe 20 nM
Method: Fluorescence Polarization Assay
Determination of the Kd of the fluorescent probes
Commercially available purified hMAGL protein (Cepter Biopartners, Nutley, NJ, USA) was diluted in PBS-buffer pH 7.4 + 0.1% Tween 80, in a range of concentrations and incubated with compound 5 (20 nM = [L]T) at ambient temperature for 60 min. Fluorescence polarization was determined via a Tecan Spark multimode plate reader (Ex/Em = 482/502 nm , 7.5 nm bandwidth each) in a 384 flat black well plate (Corning); six measurements per data point. The experiment was carried out in triplicate. Data were analyzed via GraphPad Prism 5.0 software. K d of the fluoroprobe was calculated from the observed MAGL concentration at half-maximal FP (FP50) as follows.
K = [L][P] = 0.5 [L]T (FP50 − 0.5 [L]T) = FP − 0.5 [L]
Competitive FP Binding Assay hMAGL in PBS-buffer pH 7.4 + 0.1% tween 80 at a final concentration of 50 nM was incubated with a range of inhibitor DMSO solutions (5µL) (serial dilution 1:3) for 30 min at ambient temperature in a 384 flat black well plate (Corning). […] After 30 min incubation at ambient temperature, fluorescence polarization was determined as described above. Data were analyzed via GraphPad Prism 5.0 software, and IC50 values were converted to Ki according to Nikolovska-Coleska et al. 28 Under these conditions the assay performed with an average z´= 0.90. […]

Question: For `O=C(N1CC2(CC(CC3=C4C=CC=[N+]4[B-](F)(F)n4cccc43)C2)C1)N1CC2(CC(n3cnc(C4CC4)n3)C2)C1` [Compound 5], which Kd is on record?
Answer: Its Kd is 6.65 nM.
